Consider five compounds from patent publication US9893302B2, “Heterocyclic fluorescent dyes and method of production thereof” (BASF SE, priority 2013, dated 2018).

“And” between values parts separate entries of the source, which are not always exact repeats. Equal values may be shown once. Read-outs that look alike come from different tables or passages of the source.

Data set [1] is described as follows: Solubility in typical organic solvents. It counts as physicochemical. As to conditions: for solubility compared with compound V-1: in typical organic solvents; for solubility: organic solvent or mixture. An excerpt:
Reference is made to the below table.

The nature of data set [2]: Spectroscopic data: absorption, emission, Stokes shift, extinction coefficient, fluorescence quantum yield. It counts as physicochemical. The settings on record: for φfl (fluorescence quantum yield): standards Rhodamine B or Rhodamine 6G in EtOH. The text has this:
Spectroscopic data of compounds 3a, 3b and 3d as well as comparative compounds
Rhodamine B in EtOH or Rhodamine 6G in EtOH are used as standards for quantum yield measurements.

[3] abbreviates: in CHCl3, read-out: Solubility in CHCl3.
Setting [4] is: in Toluene, read-out: Solubility in Toluene.

With `COc1cc2c(cc1OC)C1=C3C(=O)N4C=C(c5ccccc5)c5cc(OC)c(OC)cc5C4=C3C(=O)N1C=C2c1ccccc1` [3a], in data set [1], the “solubility compared with compound V-1” value was “order of magnitude higher”. In addition, the solubility in data set [1] (setting [3]) is 3460 µM and 2110 µg/mL. For the same compound, the solubility in data set [1] (setting [4]) is 47 µM and 28.6 µg/mL. In data set [2], the “fluorescence quantum yield” value was “around 80%”. In addition, in data set [2] (solvent CHCl3), the Stokes shift worked out at 140 cm⁻¹, the maxλabs is 600 nm, the maxλem stood at 605 nm and the εmax was 100000 M⁻¹ cm⁻¹. In data set [2] (solvent CHCl3), the “φfl (fluorescence quantum yield)” value was 0.89.
Consider `COc1cccc(C2=CN3C(=O)C4=C5c6cc(OC)c(OC)cc6C(c6cccc(OC)c6)=CN5C(=O)C4=C3c3cc(OC)c(OC)cc32)c1` [3b], for which the “solubility compared with compound V-1” value in data set [1] is given as “order of magnitude higher”. Besides, the solubility in data set [1] (setting [3]) was 955 µM and 639 µg/mL. In addition, in data set [1] (setting [4]), the solubility was 53.4 µM and 35.7 µg/mL. The “fluorescence quantum yield” value in data set [2] is recorded as “around 80%”. In data set [2] (solvent CHCl3), the Stokes shift stood at 220 cm⁻¹, the maxλabs was 601 nm, the maxλem was 609 nm and the εmax is 85000 M⁻¹ cm⁻¹. The “φfl (fluorescence quantum yield)” value in data set [2] (solvent CHCl3) was 0.85.
In the case of `CC(C)(C)c1cc(C(C)(C)C)c2oc3c(c2c1)C(c1ccccc1)=CN1C(=O)C2=C4c5oc6c(C(C)(C)C)cc(C(C)(C)C)cc6c5C(c5ccccc5)=CN4C(=O)C2=C31` [3d], the melting point is > 400 °C (dec.). In addition, the “solubility compared with compound V-1” value in data set [1] is given as “order of magnitude higher”. Besides, the “fluorescence quantum yield” value in data set [2] was “around 80%”. In addition, in data set [2] (solvent CHCl3), the Stokes shift was 160 cm⁻¹, the maxλabs is given as 654 nm, the maxλem worked out at 661 nm and the εmax was found to be 150000 M⁻¹ cm⁻¹. The “φfl (fluorescence quantum yield)” value in data set [2] (solvent CHCl3) was 0.81.
In the case of `COc1cc2c(cc1OC)C1=C3C(=O)N4C=Cc5cc(OC)c(OC)cc5C4=C3C(=O)N1C=C2` [V-1], in data set [1] (setting [3]), the solubility is 272 µM and 126 µg/mL. In addition, the solubility in data set [1] (setting [4]) is 6.13 µM and 2.85 µg/mL. Further, in data set [2] (solvent CHCl3), the Stokes shift was determined as 200 cm⁻¹, the maxλabs is reported as 593 nm, the maxλem came out at 600 nm and the εmax turned out to be 110000 M⁻¹ cm⁻¹. Besides, the “φfl (fluorescence quantum yield)” value in data set [2] (solvent CHCl3) is 0.19. Further, in data set [2] (solvent DMF), the Stokes shift came out at 220 cm⁻¹, the maxλabs was 593 nm, the maxλem was 601 nm and the εmax is 91000 M⁻¹ cm⁻¹. In addition, the “φfl (fluorescence quantum yield)” value in data set [2] (solvent DMF) is 0.22.
`CC(C)(C)c1cc(C(C)(C)C)c2oc3c(c2c1)C=CN1C(=O)C2=C4c5oc6c(C(C)(C)C)cc(C(C)(C)C)cc6c5C=CN4C(=O)C2=C31` [V-2]: in data set [2] (solvent CHCl3), the Stokes shift was determined as 210 cm⁻¹, the maxλabs worked out at 643 nm, the maxλem was found to be 652 nm and the εmax was found to be 120000 M⁻¹ cm⁻¹. In addition, the “φfl (fluorescence quantum yield)” value in data set [2] (solvent CHCl3) came out at 0.05. Further, in data set [2] (solvent DMF), the Stokes shift is 240 cm⁻¹, the maxλabs is given as 645 nm, the maxλem is reported as 655 nm and the εmax was found to be 107000 M⁻¹ cm⁻¹. Moreover, the “φfl (fluorescence quantum yield)” value in data set [2] (solvent DMF) was determined as 0.02.
